Results taken from patent US6806230B1, “Pyrimidine derivatives and herbicides containing them” (Kumiai Chemical Industry Co., Ltd., priority 1999, dated 2004).

Tests used:
Format in all cases: in vivo
[1] = system: green foxtail (Se); assay: Test Example 2: herbicidal effects by upland soil treatment; conditions: dose 100 g active ingredient per 10 ares, examined on the 21st day after treatment, standards of Table 44;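 also: 0-5 growth inhibition grade; 5 = over 90%; 4 = 70-90%; 3 = 50-70%; 2 = 30-50%; 1 = 10-30%; 0 = under 10%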
Description: In a 80 cm^2 plastic pot, upland soil was filled, and seeds of barnyard grass (Ec) and green foxtail (Se) were sown and covered with soil. A wettable powder prepared in accordance with Formulation Example 1 was diluted with water and uniformly applied to the soil surface by means of a small size spray at a rate of 100 l per 10 ares, so that the dose of the active ingredient would be 100 g per 10 ares. Thereafter, cultivation was carried out in a green house, and on the 21st day after the treatment, the herbicidal effects were examined in accordance with the standards as identified in Table 44.

[2] = system: monochoria (Mo); assay: Test Example 1: herbicidal effects by flooded paddy field treatment; design: herbicidal effects, Mo (monochoria):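 0-5 growth inhibition grade; 5 = over 90%; 4 = 70-90%; 3 = 50-70%; 2 = 30-50%; 1 = 10-30%; 0 = under 10%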; conditions: for Herbicidal effect index, Mo: dose 100 gai/10a, examined on 21st day after treatment, index 0-5 per Table 44; for herbicidal effects, Mo (monochoria): dose 100 g active ingredient per 10 ares, examined on the 21st day after treatment, standards of Table 44;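 as to Herbicidal effect index, Mo: 0-5 growth inhibition grade; 5 = over 90%; 4 = 70-90%; 3 = 50-70%; 2 = 30-50%; 1 = 10-30%; 0 = under 10%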
Summary of the method: (§1)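 Herbicidal effect scored 21 days post-treatment after greenhouse cultivation. Treatment was applied dropwise to the water surface, one day after sowing, as a diluted wettable powder (100 g a.i./10 ares). Pots held puddled paddy soil under 3 cm water.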

[3] = system: barnyard grass (Eo); assay: as above; design: herbicidal effects, Eo (barnyard grass):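 0-5 growth inhibition grade; 5 = over 90%; 4 = 70-90%; 3 = 50-70%; 2 = 30-50%; 1 = 10-30%; 0 = under 10%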; conditions: for Herbicidal effect index, Eo: dose 100 gai/10a, examined on 21st day after treatment, index 0-5 per Table 44; for herbicidal effects, Eo (barnyard grass): dose 100 g active ingredient per 10 ares, examined on the 21st day after treatment, standards of Table 44
Summary of the method: as §1

[4] = system: barnyard grass (Ec); assay: Test Example 2: herbicidal effects by upland soil treatment; design: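 0-5 growth inhibition grade; 5 = over 90%; 4 = 70-90%; 3 = 50-70%; 2 = 30-50%; 1 = 10-30%; 0 = under 10%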; conditions: dose 100 g active ingredient per 10 ares, examined on the 21st day after treatment, standards of Table 44
Summary of the method: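 Pre-emergence test: barnyard grass and green foxtail sown in upland soil, then soil surface sprayed with wettable-powder formulation at 100 g active ingredient per 10 ares (100 l per 10 ares). Grown in greenhouse; herbicidal effect scored on a rating scale 21 days after treatment.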

[5] = system: barnyard grass (Eo); assay: Test Example 4: selectivity for a crop plant by flooded paddy field treatment; design: scale not given here; conditions: for Eo (herbicidal effect index): barnyard grass, dose 25 gai/10a, 21st day after treatment, index per Table 44; for Eo (herbicidal effects, index): dose 25 g active ingredient per 10 ares, examined on the 21st day after treatment
Summary of the method: (§2)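 Flooded-paddy treatment: the wettable powder formulation, diluted in water, was applied dropwise to 3 cm floodwater at 25 g a.i./10 ares one day after sowing barnyard grass and monochoria and transplanting rice at the second leaf stage. Greenhouse grown; herbicidal effect rated against set standards on day 21.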

[6] = system: rice (Or); assay: as above; design: scale not given here; conditions: rice transplanted at second leaf stage; for Or (herbicidal effect index on crop): dose 25 gai/10a, 21st day after treatment, index per Table 44; for Or (effect on crop plant rice, index): dose 25 g active ingredient per 10 ares, examined on the 21st day after treatment
Summary of the method: as §2

[7] = system: monochoria (Mo); assay: as above; design: scale not given here; conditions: for Mo (herbicidal effect index): monochoria, dose 25 gai/10a, 21st day after treatment, index per Table 44; for Mo (herbicidal effects, index): dose 25 g active ingredient per 10 ares, examined on the 21st day after treatment
Summary of the method: as §2
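For Herbicidal effect index, Eo in this document: 0-5 growth inhibition grade; 5 = over 90%; 4 = 70-90%; 3 = 50-70%; 2 = 30-50%; 1 = 10-30%; 0 = under 10%.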

Row | Or (effect on crop plant rice, index) [6] | Compound | herbicidal effects, Se (green foxtail) [1] | Herbicidal effect index, Mo [2] | Herbicidal effect index, Eo [3] | herbicidal effects, Ec (barnyard grass) [4] | Eo (herbicidal effect index) [5] | Or (herbicidal effect index on crop) [6] | Mo (herbicidal effect index) [7] | Eo (herbicidal effects, index) [5] | Mo (herbicidal effects, index) [7] | herbicidal effects, Mo (monochoria) [2] | herbicidal effects, Eo (barnyard grass) [3]
1 | – | CC(C)C(c1cncnc1C(F)(F)F)N(C(=O)Cc1ccccc1)C(C)C (racemic) [Compound 1-103] | 5 | 5 | 5 | 5 | 5 | 1 | 5 | – | – | – | –
2 | 1 | CN(C(=O)Cc1ccc(F)cc1)C(c1ccccc1)c1cncnc1C(F)(F)F (racemic) [Compound 1-36] | 5 | 5 | 5 | 5 | – | – | – | 5 | 5 | – | –
3 | – | CC(C)C(c1cncnc1C(F)(F)F)N(C)C(=O)Cc1c(F)cccc1F (racemic) [Compound 1-123] | 5 | 5 | 5 | 5 | 5 | 1 | 5 | – | – | – | –
4 | 1 | COc1ccc(CC(=O)N(C)C(c2cncnc2C(F)(F)Cl)C(C)C)cc1 (racemic) [Compound 1-16] | 5 | 5 | 5 | 4 | – | – | – | 5 | 5 | – | –
5 | – | CC(C)C(c1cncnc1C(F)(F)F)N(C)C(=O)Cc1cc(F)cc(F)c1 (racemic) [Compound 1-167] | 5 | – | – | 5 | 5 | 1 | 5 | – | – | 5 | 5
6 | 1 | CC(C)C(c1cncnc1C(F)(F)F)N(C)C(=O)Cc1ccc([N+](=O)[O-])cc1 (racemic) [Compound 1-52] | 5 | 5 | 5 | 5 | – | – | – | 5 | 5 | – | –
7 | – | CN(C(=O)Cc1ccc(Cl)cc1)C(c1ccc(F)cc1)c1cncnc1C(F)(F)F (racemic) [1-219] | 5 | – | – | 5 | 5 | 1 | 5 | – | – | 5 | 5
8 | – | CC(C)C(c1cncnc1C(F)(F)F)N(C)C(=O)Cc1ccc(Cl)cc1Cl (racemic) [Compound 1-124] | 5 | 5 | 5 | 5 | 5 | 0 | 5 | – | – | – | –
9 | – | CC(C)C(c1cncnc1C(F)(F)F)N(C)C(=O)COc1ccccc1F (racemic) [Compound 1-125] | 5 | 5 | 5 | 5 | 5 | 0 | 5 | – | – | – | –
10 | 1 | CN(C(=O)Cc1ccccc1)C(c1cncnc1C(F)(F)F)C1CC1 (racemic) [Compound 1-34] | 5 | 5 | 5 | 5 | – | – | – | 5 | 5 | – | –
11 | – | CN(C(=O)Cc1ccc(Cl)cc1)C(c1cncnc1C(F)(F)F)C1CCCC1 (racemic) [Compound 1-139] | 5 | – | – | 5 | 5 | 0 | 5 | – | – | 5 | 5
12 | – | Cc1cc(CC(=O)N(C)C(c2cncnc2C(F)(F)F)C(C)C)ccc1Cl (racemic) [Compound 1-120] | 4 | 5 | 5 | 5 | 5 | 0 | 5 | – | – | – | –
13 | – | CC(c1cncnc1C(C)(C)C)N(C)C(=O)Cc1ccc(Cl)cc1 (racemic) [1-190] | 4 | – | – | 4 | 5 | 0 | 5 | – | – | 5 | 5
14 | 1 | CCc1ccc(CC(=O)N(C)C(c2cncnc2C(F)(F)F)C(C)C)cc1 (racemic) [Compound 1-67] | 5 | 5 | 5 | 5 | – | – | – | 5 | 5 | – | –
15 | 1 | CCCN(C(=O)Cc1ccc(C)cc1)C(c1cncnc1C(F)(F)F)C(C)C (racemic) [Compound 1-62] | 4 | 5 | 5 | 4 | – | – | – | 5 | 5 | – | –
16 | – | CN(C(=O)Cc1ccccc1)C(c1ccc(F)cc1)c1cncnc1C(F)(F)F (racemic) [1-217] | 5 | – | – | 5 | 5 | 1 | 5 | – | – | 5 | 5
17 | – | Cc1ccc(OCC(=O)N(C)C(c2cncnc2C(F)(F)F)C(C)C)cc1 (racemic) [Compound 1-136] | 5 | – | – | 5 | 5 | 1 | 5 | – | – | 5 | 5
18 | – | Cc1ccc(CC(=O)N(C)C(c2ccc(C)cc2)c2cncnc2C(F)(F)F)cc1 (racemic) [1-228] | 5 | – | – | 5 | 5 | 0 | 5 | – | – | 5 | 5
19 | – | CSc1ncncc1C(C(C)C)N(C)C(=O)Cc1ccccc1 (racemic) [Compound 1-150] | 5 | – | – | 5 | 5 | 1 | 5 | – | – | 5 | 5
20 | – | Cc1ncncc1C(N(C)C(=O)Cc1ccc(Cl)cc1)C(C)(C)C (racemic) [Compound 1-161] | 5 | – | – | 5 | 5 | 0 | 5 | – | – | 5 | 5
